# Results as given in US20100298141A1, “SUBSTITUTED PYRIDINE N-OXIDE HERBICIDES” (E. I. DU PONT DE NEMOURS AND COMPANY, priority 2007, published 2010).
# What was measured:
# broadleaf signalgrass = experiment: Test F preemergence test; format: in vivo, Brachiaria platyphylla; details: scale 0 to 100
# In short: (§1)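 Preemergence application to planted seeds, or postemergence to sugarcane plants; compound in non-phytotoxic solvent mix plus surfactant. Greenhouse, 14-21 days. Visual rating vs. controls.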
# prickly sida = experiment: Test F preemergence test; format: in vivo, Sida spinosa; details: scale 0 to 100
# In short: as §1
# common ragweed [1] = experiment: Test F preemergence test; format: in vivo, Ambrosia elation; details: scale 0 to 100
# In short: as §1
# crabgrass = experiment: Test A pre-/postemergence greenhouse test; format: in vivo, Digitaria sanguinalis; details: for Crabgrass, Large plant response rating: 0 to 100 scale
# In short: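 Herbicidal effect is a visual injury score given about ten days post-treatment by comparison with untreated controls. Preemergence plots received a directed spray onto sown loam–sand soil; postemergence plants, at the one- to two-leaf stage and 2–10 cm tall, were sprayed at the same time.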
# kochia = experiment: Test C pre-/postemergence test; format: in vivo, Kochia scoparia
# In short: (§2)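 Compounds in a non-phytotoxic solvent with surfactant applied preemergence to seeded pots and, at the same time, postemergence to plants 2–18 cm tall (1- to 4-leaf stage). Paddy tests: pots flooded to 3 cm, compound applied into the water, depth held throughout.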
# goosegrass = experiment: Test F preemergence test; format: in vivo, Eleusine indica; details: scale 0 to 100
# In short: as §1
# green foxtail = experiment: Test F preemergence test; format: in vivo, Setaria viridis; details: scale 0 to 100
# In short: as §1
# common ragweed [2] = experiment: Test C pre-/postemergence test; format: in vivo, Ambrosia elation
# In short: as §2
# purple nutsedge = experiment: Test F preemergence test; format: in vivo, Cyperus rotundus; details: scale 0 to 100
# In short: as §1
# yellow nutsedge = experiment: Test C pre-/postemergence test; format: in vivo, Cyperus esculentus
# In short: as §2
# naked crabgrass = experiment: Test F preemergence test; format: in vivo, Digitaria nuda; details: scale 0 to 100
# In short: as §1
# bermudagrass = experiment: Test F preemergence test; format: in vivo, Cynodon dactylon; details: scale 0 to 100
# In short: as §1
# pitted morningglory = experiment: Test F preemergence test; format: in vivo, Ipomoea lacunosa; details: scale 0 to 100
# In short: as §1
# itchgrass = experiment: Test F preemergence test; format: in vivo, Rottboellia cochinchinensis; details: scale 0 to 100
# In short: as §1
# [3] = 62 g ai/ha, Preemergence, scale 0 to 100
# [4] = 125 g ai/ha, preemergence, scale 0 (no effect) to 100 (complete control)
# [5] = Preemergence, 31 g ai/ha, scale 0 to 100 (0 no effect, 100 complete control)
# [6] = preemergence, 250 g ai/ha, scale 0 (no effect) to 100 (complete control)
smiles,measurement,setting,value
Cc1cc[n+]([O-])c(S(=O)(=O)C(Cl)c2c(C(F)(F)F)nn(C)c2OCC(F)(F)F)c1 (racemic) [Compound 37],"Plant response rating, Signalgrass","broadleaf signalgrass; 16 g ai/ha, preemergence",20
same,Signalgrass plant response rating,"broadleaf signalgrass; 125 g ai/ha, preemergence",95
same,"Plant response rating, Signalgrass","broadleaf signalgrass; Preemergence, 62 g ai/ha",65
same,"Plant response rating, Signalgrass","broadleaf signalgrass; Preemergence, 31 g ai/ha",35
same,"Plant response rating, Prickly Sida","prickly sida; 16 g ai/ha, preemergence",0
same,Prickly Sida plant response rating,"prickly sida; 62 g ai/ha, Preemergence",35
same,Prickly Sida plant response rating,"prickly sida; 125 g ai/ha, preemergence",90
same,"Plant response rating, Prickly Sida","prickly sida; Preemergence, 31 g ai/ha",15
same,"Plant response rating, Ragweed","common ragweed [1]; 16 g ai/ha, preemergence",0
same,Ragweed plant response rating,"common ragweed [1]; 125 g ai/ha, preemergence",0
same,"Plant response rating, Ragweed","common ragweed [1]; Preemergence, 62 g ai/ha",0
same,"Plant response rating, Ragweed","common ragweed [1]; Preemergence, 31 g ai/ha",0
same,"Crabgrass, Large plant response rating","crabgrass; Postemergence, 125 g ai/ha, 0 is no effect, 100 is complete control",30
same,"Crabgrass, Large plant response rating","crabgrass; Postemergence, 500 g ai/ha, 0 is no effect, 100 is complete control",80
same,"Crabgrass, Large plant response rating","crabgrass; Preemergence, 125 g ai/ha, 0 no effect, 100 complete control",60
same,"Plant response rating, Crabgrass, Large","crabgrass; Preemergence, 500 g ai/ha, 0 to 100 scale where 0 is no effect and 100 is complete control",90
same,Kochia plant response rating,kochia; [3],40
same,Kochia plant response rating,kochia; [4],100
same,"Plant response rating, Kochia",kochia; [5],0
same,Kochia plant response rating,kochia; [6],100
same,"Plant response rating, Goosegrass","goosegrass; 16 g ai/ha, preemergence",65
same,Goosegrass plant response rating,"goosegrass; 62 g ai/ha, Preemergence",75
same,Goosegrass plant response rating,"goosegrass; 125 g ai/ha, preemergence",98
same,"Plant response rating, Goosegrass","goosegrass; Preemergence, 31 g ai/ha",65
same,"Plant response rating, Foxtail, Green","green foxtail; 16 g ai/ha, preemergence",0
same,"Foxtail, Green plant response rating","green foxtail; 62 g ai/ha, Preemergence",15
same,"Foxtail, Green plant response rating","green foxtail; 125 g ai/ha, preemergence",90
same,"Plant response rating, Foxtail, Green","green foxtail; Preemergence, 31 g ai/ha",10
same,Ragweed plant response rating,common ragweed [2]; [3],0
same,Ragweed plant response rating,common ragweed [2]; [4],70
same,"Plant response rating, Ragweed",common ragweed [2]; [5],0
same,Ragweed plant response rating,common ragweed [2]; [6],80
same,"Plant response rating, Purple Nutsedge","purple nutsedge; 16 g ai/ha, preemergence",0
same,Purple Nutsedge plant response rating,"purple nutsedge; 62 g ai/ha, Preemergence",0
same,Purple Nutsedge plant response rating,"purple nutsedge; 125 g ai/ha, preemergence",0
same,"Plant response rating, Purple Nutsedge","purple nutsedge; Preemergence, 31 g ai/ha",0
same,"Nutsedge, Yellow plant response rating",yellow nutsedge; [3],0
same,"Nutsedge, Yellow plant response rating",yellow nutsedge; [4],80
same,"Plant response rating, Nutsedge, Yellow",yellow nutsedge; [5],0
same,"Nutsedge, Yellow plant response rating",yellow nutsedge; [6],80
same,"Plant response rating, Crabgrass, Naked","naked crabgrass; 16 g ai/ha, preemergence",40
same,"Crabgrass, Naked plant response rating","naked crabgrass; 62 g ai/ha, Preemergence",40
same,"Crabgrass, Naked plant response rating","naked crabgrass; 125 g ai/ha, preemergence",100
same,"Plant response rating, Bermudagrass","bermudagrass; 16 g ai/ha, preemergence",35
same,Bermudagrass plant response rating,"bermudagrass; 62 g ai/ha, Preemergence",65
same,Bermudagrass plant response rating,"bermudagrass; 125 g ai/ha, preemergence",75
same,"Plant response rating, Bermudagrass","bermudagrass; Preemergence, 31 g ai/ha",35
same,"Plant response rating, Morningglory","pitted morningglory; 16 g ai/ha, preemergence",0
same,Morningglory plant response rating,"pitted morningglory; 62 g ai/ha, Preemergence",0
same,Morningglory plant response rating,"pitted morningglory; 125 g ai/ha, preemergence",35
same,"Plant response rating, Morningglory","pitted morningglory; Preemergence, 31 g ai/ha",0
same,"Plant response rating, Itchgrass","itchgrass; 16 g ai/ha, preemergence",0
same,Itchgrass plant response rating,"itchgrass; 62 g ai/ha, Preemergence",35
same,Itchgrass plant response rating,"itchgrass; 125 g ai/ha, preemergence",80
same,"Plant response rating, Itchgrass","itchgrass; Preemergence, 31 g ai/ha",0
